We go through 11 compounds from publication PMC6553708 (PLoS ONE, 2019).

Several values for one entry are separate records, joined by “and”; a condition that tells them apart may be missing. Equal values may be shown once. Read-outs that look alike come from different tables or passages of the source.

In test [1] the target is T1, Mu Opioid Receptor (MOR) (Homo sapiens, UniProt P35372). As to the kind of experiment: biochemical. Particulars: for Emax: read-out: MOR EMAX (35S-GTPγS).
Test [2] concerns the target T2, Serotonin Transporter (SERT) (Homo sapiens, UniProt P31645).
T2 construct: HA (N); host or cells: HEK293 (ATCC CRL-1573), electroporated, G418-selected population
As to the kind of experiment: cell-based.

The next test concerns the target T3, Sigma-1 Receptor (σ1R) (Homo sapiens, UniProt Q99720).
T3 construct: HA (N); host or cells: HEK293 (ATCC CRL-1573), electroporated, G418-selected population; membranes used
As to the kind of experiment: biochemical. The test is classed as binding.

Test [3] has as its target T4, Cannabinoid Receptor Type 1 (CB1) (Homo sapiens, UniProt P21554).
T4 construct: membranes used
The experiment in a line: biochemical.

The conditions of test [4]: cited from earlier work.
In test [5] the target is T5, Norepinephrine Transporter (NET) (Homo sapiens, UniProt P23975).
T5 construct: HA (N); host or cells: HEK293 (ATCC CRL-1573), electroporated, G418-selected population
As to the kind of experiment: cell-based. The conditions noted are these: for Emax at 10 µM: read-out: NET IMAX, in parentheses: maximum efficacy at 10 μM.

In test [6] the target is T6, Kappa Opioid Receptor (KOR) (Homo sapiens, UniProt P41145).
T6 construct: membranes used
As to the kind of experiment: biochemical. The conditions noted are these: for Emax at 10 µM: read-out: KOR EMAX, in parentheses: maximum efficacy at 10 μM.

Test [7] deals with T7, Delta Opioid Receptor (DOR) (Homo sapiens, UniProt P41143).
T7 construct: 3X-hemagglutinin (HA) (N); expressed in transfected cells; membranes used
Type of test: biochemical.

Test [8] has as its target T6, Kappa Opioid Receptor (KOR). As to the kind of experiment: biochemical. The test is classed as binding.
A further test concerns MOR. The conditions noted are these: cited from earlier work.
In test [9] the target is T6, Kappa Opioid Receptor (KOR). The test is classed as biochemical.
In a further test the test system is CD-1 mice. Particulars: male CD-1 mice.
Test [10] addresses T8, Dopamine Transporter (DAT) (Homo sapiens, UniProt Q01959).
T8 construct: HA (N); host or cells: HEK293 (ATCC CRL-1573), electroporated, G418-selected population
As to the kind of experiment: cell-based. The test is classed as cell-based. Particulars: for Emax at 10 µM: read-out: DAT IMAX, in parentheses: maximum efficacy at 10 μM.

Test [11] has as its target T8, Dopamine Transporter (DAT). The experiment in a line: biochemical. The test is classed as binding.
Test [12] addresses T2, Serotonin Transporter (SERT). As to the kind of experiment: biochemical. The test is classed as binding.
Test [13] deals with T1, Mu Opioid Receptor (MOR). As to the kind of experiment: biochemical. Type of test: binding.

T5 sequence (P23975 whole entry): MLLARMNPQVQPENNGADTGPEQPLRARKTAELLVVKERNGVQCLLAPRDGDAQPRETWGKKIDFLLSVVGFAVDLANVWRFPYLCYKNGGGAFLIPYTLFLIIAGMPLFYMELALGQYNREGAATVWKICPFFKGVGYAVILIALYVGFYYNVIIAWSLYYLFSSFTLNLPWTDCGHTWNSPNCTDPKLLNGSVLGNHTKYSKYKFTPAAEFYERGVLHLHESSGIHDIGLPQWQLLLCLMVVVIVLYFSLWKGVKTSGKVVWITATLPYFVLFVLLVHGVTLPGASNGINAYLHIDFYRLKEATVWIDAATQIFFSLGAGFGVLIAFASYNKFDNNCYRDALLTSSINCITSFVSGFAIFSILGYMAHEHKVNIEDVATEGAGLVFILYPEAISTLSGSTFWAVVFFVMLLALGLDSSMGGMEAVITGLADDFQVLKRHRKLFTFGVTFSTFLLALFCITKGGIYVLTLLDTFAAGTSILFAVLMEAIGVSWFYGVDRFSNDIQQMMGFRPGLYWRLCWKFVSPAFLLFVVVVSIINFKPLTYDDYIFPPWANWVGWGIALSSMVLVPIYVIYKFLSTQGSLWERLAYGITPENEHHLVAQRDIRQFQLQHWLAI
T6 sequence (P41145 whole entry): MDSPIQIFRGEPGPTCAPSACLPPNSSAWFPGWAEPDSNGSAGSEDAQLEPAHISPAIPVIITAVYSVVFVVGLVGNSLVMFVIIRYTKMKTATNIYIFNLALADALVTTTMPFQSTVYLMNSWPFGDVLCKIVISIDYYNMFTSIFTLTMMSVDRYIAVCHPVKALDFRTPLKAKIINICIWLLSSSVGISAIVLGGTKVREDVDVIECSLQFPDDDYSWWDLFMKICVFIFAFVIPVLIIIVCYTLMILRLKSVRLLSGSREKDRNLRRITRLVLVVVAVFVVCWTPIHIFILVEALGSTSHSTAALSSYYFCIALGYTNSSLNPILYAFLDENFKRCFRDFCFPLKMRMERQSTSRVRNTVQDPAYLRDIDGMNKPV
T8 sequence (Q01959 whole entry): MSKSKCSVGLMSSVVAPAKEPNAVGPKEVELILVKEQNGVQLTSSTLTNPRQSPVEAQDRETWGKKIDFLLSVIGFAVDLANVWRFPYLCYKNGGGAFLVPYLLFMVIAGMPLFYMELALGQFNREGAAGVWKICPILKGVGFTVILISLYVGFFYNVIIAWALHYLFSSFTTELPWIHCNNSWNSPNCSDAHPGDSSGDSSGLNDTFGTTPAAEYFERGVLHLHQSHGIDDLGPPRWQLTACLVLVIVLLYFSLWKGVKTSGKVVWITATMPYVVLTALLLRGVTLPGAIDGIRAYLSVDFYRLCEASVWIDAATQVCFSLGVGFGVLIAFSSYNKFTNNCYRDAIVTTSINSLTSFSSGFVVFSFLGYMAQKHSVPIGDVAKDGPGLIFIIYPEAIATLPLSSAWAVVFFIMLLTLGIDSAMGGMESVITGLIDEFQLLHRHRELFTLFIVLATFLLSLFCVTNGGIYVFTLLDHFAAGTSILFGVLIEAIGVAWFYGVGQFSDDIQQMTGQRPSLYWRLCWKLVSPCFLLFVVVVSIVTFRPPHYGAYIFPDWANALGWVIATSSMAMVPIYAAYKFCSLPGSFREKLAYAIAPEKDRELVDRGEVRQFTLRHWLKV
T4 sequence (P21554 whole entry): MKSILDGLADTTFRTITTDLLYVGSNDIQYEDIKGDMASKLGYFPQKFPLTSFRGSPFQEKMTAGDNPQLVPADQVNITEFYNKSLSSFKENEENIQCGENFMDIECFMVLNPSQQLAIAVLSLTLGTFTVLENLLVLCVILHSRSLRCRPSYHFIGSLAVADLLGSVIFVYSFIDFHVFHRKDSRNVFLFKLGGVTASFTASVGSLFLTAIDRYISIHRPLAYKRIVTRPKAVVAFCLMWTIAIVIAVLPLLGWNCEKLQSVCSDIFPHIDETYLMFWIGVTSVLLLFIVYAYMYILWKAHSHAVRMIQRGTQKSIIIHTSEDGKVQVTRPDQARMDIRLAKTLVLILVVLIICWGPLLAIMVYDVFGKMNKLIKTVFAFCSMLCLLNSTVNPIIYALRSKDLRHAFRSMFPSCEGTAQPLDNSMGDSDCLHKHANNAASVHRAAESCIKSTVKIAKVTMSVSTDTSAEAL
T3 sequence (Q99720 whole entry): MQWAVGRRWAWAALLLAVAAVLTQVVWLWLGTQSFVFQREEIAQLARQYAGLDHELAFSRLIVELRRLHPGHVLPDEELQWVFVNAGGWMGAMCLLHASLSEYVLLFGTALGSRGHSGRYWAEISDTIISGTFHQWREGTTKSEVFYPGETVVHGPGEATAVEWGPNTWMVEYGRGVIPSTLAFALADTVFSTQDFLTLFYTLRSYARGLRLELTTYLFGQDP
T2 sequence (P31645 whole entry): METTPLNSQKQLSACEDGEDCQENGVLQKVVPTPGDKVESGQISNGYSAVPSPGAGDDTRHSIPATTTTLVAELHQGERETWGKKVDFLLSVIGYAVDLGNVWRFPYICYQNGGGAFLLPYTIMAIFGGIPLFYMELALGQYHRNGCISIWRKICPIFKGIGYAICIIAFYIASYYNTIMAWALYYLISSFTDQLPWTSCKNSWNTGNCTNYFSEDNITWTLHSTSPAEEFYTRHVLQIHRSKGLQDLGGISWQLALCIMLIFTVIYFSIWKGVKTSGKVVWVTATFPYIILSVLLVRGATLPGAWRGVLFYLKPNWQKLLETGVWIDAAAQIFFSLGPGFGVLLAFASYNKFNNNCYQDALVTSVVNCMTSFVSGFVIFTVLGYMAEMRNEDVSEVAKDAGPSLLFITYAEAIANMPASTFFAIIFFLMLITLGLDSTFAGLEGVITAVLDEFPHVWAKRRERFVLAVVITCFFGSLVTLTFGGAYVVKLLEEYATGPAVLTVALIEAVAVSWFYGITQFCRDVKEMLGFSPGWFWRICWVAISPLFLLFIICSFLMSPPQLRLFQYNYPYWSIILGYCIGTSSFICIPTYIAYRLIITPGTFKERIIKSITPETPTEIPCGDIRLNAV
T7 sequence (P41143 whole entry): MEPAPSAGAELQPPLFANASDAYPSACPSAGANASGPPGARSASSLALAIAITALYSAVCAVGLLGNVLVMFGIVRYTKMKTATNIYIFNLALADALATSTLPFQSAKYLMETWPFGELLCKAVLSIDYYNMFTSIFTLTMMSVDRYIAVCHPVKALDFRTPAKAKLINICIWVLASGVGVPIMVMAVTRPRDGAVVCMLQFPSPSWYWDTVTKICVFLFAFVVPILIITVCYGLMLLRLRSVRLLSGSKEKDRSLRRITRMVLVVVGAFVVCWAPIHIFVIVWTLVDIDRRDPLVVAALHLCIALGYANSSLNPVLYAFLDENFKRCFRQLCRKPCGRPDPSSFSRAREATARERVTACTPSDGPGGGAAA
T1 sequence (P35372 whole entry): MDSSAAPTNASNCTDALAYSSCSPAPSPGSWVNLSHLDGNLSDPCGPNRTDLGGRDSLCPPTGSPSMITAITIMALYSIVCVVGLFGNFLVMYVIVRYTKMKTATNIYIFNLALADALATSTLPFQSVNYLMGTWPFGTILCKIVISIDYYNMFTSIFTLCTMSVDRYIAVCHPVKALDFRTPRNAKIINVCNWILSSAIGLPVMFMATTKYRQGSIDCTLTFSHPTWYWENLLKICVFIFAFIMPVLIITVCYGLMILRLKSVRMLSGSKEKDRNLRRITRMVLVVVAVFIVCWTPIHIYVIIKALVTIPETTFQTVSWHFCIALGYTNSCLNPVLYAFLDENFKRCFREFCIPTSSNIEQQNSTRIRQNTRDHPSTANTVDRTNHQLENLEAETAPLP

Consider `NC(=O)[C@H](Cc1ccccc1)NC(=O)[C@H](Cc1ccccc1)NC(=O)[C@@H]1CCCN1C(=O)[C@@H](N)Cc1ccc(O)cc1` [Endomorphin-2], for which the Emax at Mu Opioid Receptor (MOR) [1] amounted to 97 ± 2%.
Regarding `Fc1ccc(C(OCCN2CCN(CCCc3ccccc3)CC2)c2ccc(F)cc2)cc1` [GBR12909], the “SERT IMAX (transporter assay)” value in test [2] turned out to be 100 ± 0.4%.
As usually defined, the Ki is the equilibrium dissociation constant of an inhibitor or competing ligand from its target. `COc1ccc2c3c1O[C@H]1C(=O)CC[C@H]4[C@@H](C2)N(C)CC[C@]314` [Hydrocodone]: on Sigma-1 Receptor (σ1R), the affinity corresponds to a Ki of 4 ± 1.3 µM and the “Potential new finding: σ1R binding (in words)” value is “KOR partial agonist; CB1 partial agonist; σ1R binding”.
As a reminder, the EC50 is the concentration needed to bring the measured effect to its halfway point. With `CN1CC[C@]23c4c5ccc(O)c4O[C@H]2[C@@H](O)C=C[C@H]3[C@H]1C5` [Morphine], in test [3], the EC50 is over 2 µM and the “Potential new finding: activity at CB1 (in words)” value was “CB1 partial agonist”. For the same compound, the Emax at 10 µM in test [3] (read-out: CB1 EMAX, in parentheses: maximum efficacy at 10 μM) is over 41.5%. In test [4] (ref [13]–[15]), the “operational efficacy τ in vivo” value is 20–39 and 39.
A word on the IC50: it is the midpoint of a concentration-inhibition curve. For the compound `CN(C)C[C@H]1CCCC[C@]1(O)c1cccc(O)c1` [O-Desmethyl-Tramadol, O-desmethyl-tramadol], the “NET IMAX, in parentheses: maximum efficacy at 10 μM” value in test [5] is recorded as “(29) %”. For the same compound, the half-maximal inhibitory concentration (IC50) in [5] (read-out: NET IC50 (transporter assay)) was over 2 µM. Moreover, in test [6], the “KOR EMAX, in parentheses: maximum efficacy at 10 μM” value is given as “(5.9) %” and the “Potential new finding: activity at KOR (in words)” value was “DOR/KOR partial agonist”. In test [6] (read-out: KOR EC50 (35S-GTPγS)), the EC50 is over 2 µM. In addition, in test [7], the “DOR EMAX (35S-GTPγS)” value came out at 38 ± 14% and the “Potential new finding: activity at DOR (in words)” value is “DOR/KOR partial agonist”. Further, the 50% effective concentration (EC50) in test [7] (read-out: DOR EC50 (35S-GTPγS)) is 0.361 µM and 0.36 µM. For the same compound, the Ki in [8] (read-out: Target Binding Affinity Determined by Competition Radioligand Binding–KI, KOR) is over 2 µM.
Consider `COc1ccc2c3c1O[C@H]1C(=O)CC[C@@]4(O)[C@@H](C2)N(C)CC[C@]314` [Oxycodone], for which, in test [6], the Emax at 10 µM worked out at 9.6%. Also, the “operational efficacy τ in vivo” value in test [4] is recorded as 20–39. Moreover, the Emax at Mu Opioid Receptor (MOR) [1] was 90 ± 8%. Further, the “operational efficacy τ in vitro” value in the test on MOR is listed as 3.3–5.2. In test [9], the “KOR antagonist activity (in words)” value is “no KOR antagonist activity”.
With `CNCC[C@H](Oc1cccc2ccccc12)c1cccs1` [S-Duloxetine, S-duloxetine], the “AUC increase of buprenorphine anti-nociception (tail flick)” value in the test with CD-1 mice (duloxetine 20 mg/kg intraperitoneal 10 minutes before buprenorphine 0.2 mg/kg subcutaneous, 52°C water, 2 hour time course) was 50.6%. In addition, the “Effect on oxymorphone anti-nociception (tail flick)” value in the test on CD-1 mice (duloxetine 20 mg/kg intraperitoneal 10 minutes before oxymorphone 0.3 mg/kg subcutaneous, p > 0.05) was “no effect”. For the same compound, the “Effect on tail flick baselines” value in the test with CD-1 mice (duloxetine 20 mg/kg intraperitoneal alone (followed by vehicle)) is recorded as “no effect”.
On to `CC[C@@H](c1cccc(O)c1)[C@@H](C)CN(C)C` [Tapentadol], for which the results for the half-inhibitory concentration (IC50) in test [5], in [10] and in [2] were over 2 µM, over 10 µM and over 2 µM, respectively. For the same compound, the Emax at 10 µM in test [5] was determined as 61%; in test [6], 13%; in [10], 19%; in test [2] (read-out: SERT IMAX, in parentheses: maximum efficacy at 10 μM), 68%. Further, the “Potential new finding: activity at KOR (in words)” value in test [6] is “KOR partial agonist; σ1R binding”. Further, the EC50 was over 2 µM in [6] (KOR EC50 (35S-GTPγS)) and 1.3 ± 0.53 µM on Mu Opioid Receptor (MOR) [1] (MOR EC50 (35S-GTPγS)). Besides, the Ki on Sigma-1 Receptor (σ1R) was 2.6 ± 0.41 µM; in test [11] it was over 2 µM; in [8], over 2 µM; in test [12] it was over 2 µM; on Mu Opioid Receptor (MOR) [13], 2.1 ± 0.084 µM. For the same compound, on Sigma-1 Receptor (σ1R), the “Potential new finding: σ1R binding (in words)” value is “KOR partial agonist; σ1R binding”. Besides, the “σ1R binding affinity fold vs. MOR affinity” value on Sigma-1 Receptor (σ1R) was “nearly the same affinity as the MOR and approximately equal affinity to MOR and same”. The Emax at Mu Opioid Receptor (MOR) [1] stood at 73 ± 7%.
For `COc1cccc(C2(O)CCCCC2CN(C)C)c1` (stereo not shown) [Tramadol], the Emax at 10 µM in [5] was 57%. In addition, in test [10], the IC50 is over 10 µM and the Emax at 10 µM was found to be 22%. Also, the inhibition constant Ki in [11] is over 2 µM. Besides, at Mu Opioid Receptor (MOR) [1], the “MOR EMAX (35S-GTPγS)” value was 26 ± 6% and the Emax was determined as 25.5%. In test [8], this compound showed an inhibitory constant (Ki) of 0.89 ± 0.033 µM. In addition, the “KOR antagonist activity (in words)” value in test [9] was “no KOR antagonist activity”.
As to `CCC(=O)C(CC(C)N(C)C)(c1ccccc1)c1ccccc1` (stereo not shown) [methadone], the “operational efficacy τ in vivo” value in test [4] was 39.
Consider Buprenorphine, for which, in test [5], the “NET IMAX, in parentheses: maximum efficacy at 10 μM” value was “(-26) %” and the “Potential new finding: activity at NET (in words)” value was “CB1 inverse agonist; Monoamine transporter activator”. In test [3], the “CB1 EMAX, in parentheses: maximum efficacy at 10 μM” value was “(-38) %” and the “Potential new finding: activity at CB1 (in words)” value is “CB1 inverse agonist; Monoamine transporter activator”. In addition, in test [10], the “DAT IMAX, in parentheses: maximum efficacy at 10 μM” value is “(-67) %”; the DAT transport activation is 67.2%; the “Potential new finding: activity at DAT (in words)” value is on record as “CB1 inverse agonist; Monoamine transporter activator”. In test [2], the “Potential new finding: activity at SERT (in words)” value was “CB1 inverse agonist; Monoamine transporter activator” and the “SERT IMAX, in parentheses: maximum efficacy at 10 μM” value is recorded as “(-20) %”.
